This passage reports IC50 results from patent publication US8435981B2, “2-(heterocyclylbenzyl)pyridazinone derivatives” (Merck Patent Gesellschaft mit Beschränkter Haftung, priority 2006, dated 2013).

pIC50: −log10 of the molar value.

The target in one test is T1, Met kinase (Homo sapiens, UniProt P08581). The test can be described thus: Met kinase inhibition, cell assay. Type of test: cell-based.
Target sequence in this assay (P08581 25-1390): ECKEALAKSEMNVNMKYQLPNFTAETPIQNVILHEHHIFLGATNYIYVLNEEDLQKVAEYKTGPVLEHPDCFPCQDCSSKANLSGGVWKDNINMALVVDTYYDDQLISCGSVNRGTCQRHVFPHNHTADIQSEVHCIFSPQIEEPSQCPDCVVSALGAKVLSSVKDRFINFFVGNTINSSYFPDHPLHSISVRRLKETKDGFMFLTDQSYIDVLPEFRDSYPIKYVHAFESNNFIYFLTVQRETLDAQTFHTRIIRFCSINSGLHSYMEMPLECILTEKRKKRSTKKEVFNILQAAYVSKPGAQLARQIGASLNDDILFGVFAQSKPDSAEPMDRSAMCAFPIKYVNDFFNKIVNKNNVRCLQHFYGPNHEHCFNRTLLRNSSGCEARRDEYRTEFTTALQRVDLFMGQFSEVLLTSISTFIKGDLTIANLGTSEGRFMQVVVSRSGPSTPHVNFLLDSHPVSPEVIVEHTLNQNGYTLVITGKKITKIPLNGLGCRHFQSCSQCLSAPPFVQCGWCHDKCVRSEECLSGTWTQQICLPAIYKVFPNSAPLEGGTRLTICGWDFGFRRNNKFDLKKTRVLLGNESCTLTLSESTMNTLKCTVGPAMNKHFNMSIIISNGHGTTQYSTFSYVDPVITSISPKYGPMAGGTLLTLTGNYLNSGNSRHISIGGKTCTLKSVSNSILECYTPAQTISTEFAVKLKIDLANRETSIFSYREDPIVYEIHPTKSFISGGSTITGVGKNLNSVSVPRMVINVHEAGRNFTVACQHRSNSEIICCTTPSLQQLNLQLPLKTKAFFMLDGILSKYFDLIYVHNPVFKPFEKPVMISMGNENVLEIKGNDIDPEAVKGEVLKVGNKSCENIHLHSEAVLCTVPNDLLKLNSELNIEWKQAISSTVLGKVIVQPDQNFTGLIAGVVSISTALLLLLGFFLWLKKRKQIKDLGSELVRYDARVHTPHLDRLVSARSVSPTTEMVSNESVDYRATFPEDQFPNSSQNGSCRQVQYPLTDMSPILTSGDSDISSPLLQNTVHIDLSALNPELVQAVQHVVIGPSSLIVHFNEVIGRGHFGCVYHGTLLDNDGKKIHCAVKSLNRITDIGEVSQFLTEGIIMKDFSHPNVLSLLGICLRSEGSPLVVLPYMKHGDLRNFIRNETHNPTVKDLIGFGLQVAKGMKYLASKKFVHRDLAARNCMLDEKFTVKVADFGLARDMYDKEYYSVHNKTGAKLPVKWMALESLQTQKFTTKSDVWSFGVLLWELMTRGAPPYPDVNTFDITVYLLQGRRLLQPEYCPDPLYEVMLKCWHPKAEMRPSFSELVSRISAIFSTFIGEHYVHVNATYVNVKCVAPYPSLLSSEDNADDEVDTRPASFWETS
Regarding `COCCCN1CCN(c2nc(-c3cccc(Cn4nc(-c5cc(F)cc(F)c5)ccc4=O)c3)no2)CC1` [Compound A124, 6-(3,5-Difluorophenyl)-2-(3-{5-[4-(3-methoxypropyl)-piperazin-1-yl]-1,2,4-oxadiazol-3-yl}benzyl)-2H-pyridazin-3-one], the pIC50 (in general, the negative decadic logarithm of the IC50, by convention in mol/L) is 6.00 to 8.00.
Same read-out and setting: with `O=c1ccc(-c2cc(F)cc(F)c2)nn1Cc1cccc(-c2noc(N3CCN(CCO)CC3)n2)c1` [Compound A111, 6-(3,5-difluorophenyl)-2-(3-{5-[4-(2-hydroxyethyl)piperazin-1-yl]-1,2,4-oxadiazol-3-yl}benzyl)-2H-pyridazin-3-one] the figure was 6.00 to 8.00; with `CCOCCN1CCN(c2nc(-c3cccc(Cn4nc(-c5cc(F)cc(F)c5)ccc4=O)c3)no2)CC1` [Compound A123, 6-(3,5-Difluorophenyl)-2-(3-{5-[4-(2-ethoxyethyl)-piperazin-1-yl]-1,2,4-oxadiazol-3-yl}benzyl)-2H-pyridazin-3-one], 6.00 to 8.00.

Another test concerns the target T1, Met kinase. The test can be described thus: Met kinase inhibition, enzyme assay (flashplate method). The test is classed as biochemical. Details: 6His (N); purchased Upstate 14-526; host or cells: Sf21 insect cells (S. frugiperda), baculovirus. The procedure:
Flashplate Method (Met Kinase)
The test plates used are 96-well Flashplate® microtitre plates from Perkin Elmer (Cat. No. SMP200). The components of the kinase reaction described below are pipetted into the assay plate. The Met kinase and the substrate poly Ala-Glu-Lys-Tyr, (pAGLT, 6:2:5:1), are incubated for 3 hrs at room temperature with radioactively labelled ^33P-ATP in the presence and absence of test substances in a total volume of 100 μl. The reaction is terminated using 150 μl of a 60 mM EDTA solution. After incubation for a further 30 min at room temperature, the supernatants are filtered off with suction, and the wells are washed three times with 200 μl of 0.9% NaCl solution each time. The measurement of the bound radioactivity is carried out by means of a scintillation measuring instrument (Topcount NXT, Perkin-Elmer).
The full value used is the inhibitor-free kinase reaction. This should be approximately in the range 6000-9000 cpm. The pharmacological zero value used is staurosporin in a final concentration of 0.1 mM. The inhibitory values (IC50) are determined using the RS1_MTS program.
Kinase reaction conditions per well:
10 μl of substance to be tested in assay buffer with 10% of DMSO
10 μl of ATP (final concentration 1 μM cold, 0.35 μCi of ^33P-ATP)
50 μl of Met kinase/substrate mixture in assay buffer;
Target sequence in this assay (P08581 974-1390 limits assumed): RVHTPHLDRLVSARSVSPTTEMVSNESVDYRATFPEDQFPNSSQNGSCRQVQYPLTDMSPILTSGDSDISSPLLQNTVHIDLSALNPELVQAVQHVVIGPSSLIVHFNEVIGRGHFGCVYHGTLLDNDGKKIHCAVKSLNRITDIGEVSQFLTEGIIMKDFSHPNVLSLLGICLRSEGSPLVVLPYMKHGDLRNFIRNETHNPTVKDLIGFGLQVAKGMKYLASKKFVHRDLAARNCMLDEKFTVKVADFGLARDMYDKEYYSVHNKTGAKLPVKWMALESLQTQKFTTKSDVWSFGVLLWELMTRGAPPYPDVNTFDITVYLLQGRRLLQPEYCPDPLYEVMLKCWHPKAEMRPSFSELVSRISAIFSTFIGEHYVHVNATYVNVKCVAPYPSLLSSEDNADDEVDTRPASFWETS
With `COCCN1CCN(c2nc(-c3cccc(Cn4nc(-c5cc(F)cc(F)c5)ccc4=O)c3)no2)CC1` [Compound A50, 6-(3,5-Difluorophenyl)-2-(3-{5-[4-(2-methoxyethyl)-piperazin-1-yl]-1,2,4-oxadiazol-3-yl}benzyl)-2H-pyridazin-3-one], the pIC50 was 6.00 to 8.00.
Still for that read-out and setting: to `Cc1cnc(-c2cccc(Cn3nc(-c4cccc(Cl)c4)ccc3=O)c2)o1` [Compound A33] belongs 6.00 to 8.00.
Consider `CN1CCN(C(=O)c2nc(-c3cccc(Cn4nc(-c5cc(F)cc(F)c5)ccc4=O)c3)no2)CC1` [Compound A21, 6-(3,5-difluorophenyl)-2-{3-[5-(4-methylpiperazine-1-carbonyl)-1,2,4-oxadiazol-3-yl]benzyl}-2H-pyridazin-3-one], for which the pIC50 was 6.00 to 8.00.
Still for that read-out and setting: to `Cc1nc(-c2cccc(Cn3nc(-c4cc(F)cc(F)c4)ccc3=O)c2)no1` [Compound A1, 6-(3,5-difluorophenyl)-2-[3-(5-methyl-1,2,4-oxadiazol-3-yl)benzyl]-2H-pyridazin-3-one] belongs 6.00 to 8.00; to `CN1CCC(c2cnc(-c3cccc(Cn4nc(-c5cc(F)cc(F)c5)ccc4=O)c3)o2)CC1` [Compound A88, 6-(3,5-difluorophenyl)-2-{3-[5-(1-methylpiperidin-4-yl)oxazol-2-yl]benzyl}-2H-pyridazin-3-one], 6.00 to 8.00.
Still for that read-out and setting: to `CN1CCN(c2nc(-c3cccc(Cn4nc(-c5cc(F)cc(F)c5)ccc4=O)c3)no2)CC1` [Compound A20, 6-(3,5-difluorophenyl)-2-{3-[5-(4-methylpiperazin-1-yl)-1,2,4-oxadiazol-3-yl]benzyl}-2H-pyridazin-3-one] belongs 6.00 to 8.00; to `O=c1ccc(-c2cc(F)cc(F)c2)nn1Cc1cccc(-c2noc(NCCN3CCOCC3)n2)c1` [Compound A22], 6.00 to 8.00.
Same read-out and setting: to `O=c1ccc(-c2cc(F)cc(F)c2)nn1Cc1cccc(-c2ncc(C3CCNCC3)s2)c1` [Compound A91, 6-(3,5-difluorophenyl)-2-[3-(5-piperidin-4-ylthiazol-2-yl)benzyl]-2H-pyridazin-3-one] belongs 6.00 to 8.00; to `CN(C)CCCNc1nc(-c2cccc(Cn3nc(-c4cc(F)cc(F)c4)ccc3=O)c2)no1` [Compound A12, 6-(3,5-difluorophenyl)-2-{3-[5-(3-dimethylaminopropylamino)-1,2,4-oxadiazol-3-yl]benzyl}-2H-pyridazin-3-one], 6.00 to 8.00.
`CCN1CCN(c2nc(-c3cccc(Cn4nc(-c5cc(F)cc(F)c5)ccc4=O)c3)no2)CC1` [Compound A48]: the pIC50 was 6.00 to 8.00.
The same measure, in the same setting: to `CCNc1nc(-c2cccc(Cn3nc(-c4cc(F)cc(F)c4)ccc3=O)c2)no1` [Compound A11, 6-(3,5-difluorophenyl)-2-[3-(5-ethylamino-1,2,4-oxadiazol-3-yl)benzyl]-2H-pyridazin-3-one] belongs 6.00 to 8.00; to `CN1CCC(N(C)c2nc(-c3cccc(Cn4nc(-c5cc(F)cc(F)c5)ccc4=O)c3)no2)CC1` [Compound A46, 6-(3,5-difluorophenyl)-2-(3-{5-[methyl-(1-methylpiperidin-4-yl)-amino]-1,2,4-oxadiazol-3-yl}benzyl)-2H-pyridazin-3-one], 6.00 to 8.00.
